# From ChEMBL document CHEMBL1155727, “Prunioside A: a new terpene glycoside from Spiraea prunifolia” (J Nat Prod, 2001)
# Active and inactive are the calls of the source. The calls are words filed in the database; no cut-off is given here.
# Tests used:
# Assay type in all cases: functional, cell-based
# RAW264.7 [1] = assay: Antiinflammatory activity in IFN-gamma-stimulated mouse RAW264.7 cells assessed as inhibition of nitric oxide production at 200 ug/mL after 18 hrs by Griess reagent-based ELISA
# RAW264.7 [2] = assay: Antiinflammatory activity in LPS-stimulated mouse RAW264.7 cells assessed as inhibition of nitric oxide production at 200 ug/mL after 18 hrs by Griess reagent-based ELISA
# RAW264.7 [3] = assay: Antiinflammatory activity in IFN-gamma-stimulated mouse RAW264.7 cells assessed as inhibition of nitric oxide production after 18 hrs by Griess reagent-based ELISA
# RAW264.7 [4] = assay: Antiinflammatory activity in LPS-stimulated mouse RAW264.7 cells assessed as inhibition of nitric oxide production after 18 hrs by Griess reagent-based ELISA
# RAW264.7 [5] = assay: Inhibition of iNOS mRNA expression in IFN-gamma-stimulated mouse RAW264.7 cells at 0.1 to 20 ug/mL by RT-PCR analysis
# RAW264.7 [6] = assay: Inhibition of iNOS mRNA expression in LPS-stimulated mouse RAW264.7 cells at 0.1 to 20 ug/mL by RT-PCR analysis
SMILES,inhibition (RAW264.7 [1]),inhibition (RAW264.7 [2]),inhibition (RAW264.7 [3]),inhibition (RAW264.7 [4]),inhibition (RAW264.7 [5]),inhibition (RAW264.7 [6])
C=C(C)C(OC(=O)/C=C/c1ccc(O)cc1)C1C/C(=C/CO[C@@H]2O[C@H](CO)[C@@H](O)[C@H](O)[C@H]2O)C(=O)O1 (stereo partly specified),inactive,inactive,–,–,–,–
C=C(C)C(OC(=O)/C=C/c1ccc(OC(C)=O)cc1)C1C/C(=C/CO[C@@H]2O[C@H](COC(C)=O)[C@@H](OC(C)=O)[C@H](OC(C)=O)[C@H]2OC(C)=O)C(=O)O1 (stereo partly specified),–,–,Dose-dependent effect,Dose-dependent effect,Active,Active
